Measurements reported in US20230233425A1, “USE OF VOLATILE COMPOSITIONS TO LIMIT OR ELIMINATE THE PERCEPTION OF MALODOR” (Firmenich SA, priority 2017, published 2023).
Where two headings read alike, the source gives them in different places. One block for each compound: values may come before it.

Legend:
[1] = system: geonol receptors Olfr339, Olfr1487, Olfr1A1, OR11A1, Olfr96; assay: Antagonists of geonol receptors (Example 11); assay type: cell-based, mouse and human; set-up: Inhibition(%): concentration or dose not given beside the values; conditions: Table 18
Olfr740 = Olfr740 (Mus musculus, UniProt E9PV79); assay: Indole antagonist dose-response, cAMP HTRF in HEK293T, vs indole EC80; assay type: cell-based; conditions: vs indole EC80; for Emax: HEK-293T, read-out: Olfr740 % Inhibition; for IC50: Table 22, first listing (r7-r45), read-out: Olfr740 IC50
Sequence of Olfr740 (E9PV79 entry or part of it): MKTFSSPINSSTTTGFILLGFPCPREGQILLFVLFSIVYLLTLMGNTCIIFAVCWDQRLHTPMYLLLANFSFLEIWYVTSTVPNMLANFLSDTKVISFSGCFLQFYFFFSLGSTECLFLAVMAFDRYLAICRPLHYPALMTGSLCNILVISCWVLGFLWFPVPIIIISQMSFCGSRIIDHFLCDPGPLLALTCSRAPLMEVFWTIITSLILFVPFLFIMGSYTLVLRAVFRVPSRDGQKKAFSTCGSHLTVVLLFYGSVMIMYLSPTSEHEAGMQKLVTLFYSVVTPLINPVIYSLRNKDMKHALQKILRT
Method: (§1) Using a cell-based assay, mouse receptor Olfr738, Olfr739, Olfr740, Olfr741, 0fr742, Olfr743, Olfr744, Olfr746, Olfr748 and Olfr749 were tested in an HEK293T cell line wherein the endogenous RTP1 gene has been activated and the odorant receptor chaperone was expressed (described in WO2016201153A1). The receptor genes were tagged with a Flag-Rho tag combination. Receptor genes were co-transfected with the canonical olfactory human G-protein alpha subunit Golf gene. Co-expression of the human Golf activates the Gs transduction pathway that leads to an internal cAMP increase upon binding to the appropriate ligand (indole here). Odorant-induced activity was detected by measuring the cAMP increase in the cytosol using an HTRF based kit (CisBio, cAMP dynamic 2 kit, cat. 62AM4PEJ).

Olfr746 = target: T1, Olfr746 (Mus musculus, UniProt E9Q840); assay: as above; assay type: cell-based; conditions: Table 23
T1 construct: Flag; Rho tag; expressed in transfected cells
T1 sequence (E9Q840 1-314): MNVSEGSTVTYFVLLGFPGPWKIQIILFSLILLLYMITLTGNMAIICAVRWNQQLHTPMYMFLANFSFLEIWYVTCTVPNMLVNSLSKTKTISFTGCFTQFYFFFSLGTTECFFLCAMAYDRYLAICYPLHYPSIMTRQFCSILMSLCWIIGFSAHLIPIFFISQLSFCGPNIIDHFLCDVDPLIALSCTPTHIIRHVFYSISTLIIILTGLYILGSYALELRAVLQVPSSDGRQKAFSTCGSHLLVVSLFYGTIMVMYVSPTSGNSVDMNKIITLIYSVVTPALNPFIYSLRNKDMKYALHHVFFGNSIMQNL
Method: as §1, with “Functional dose-response experiments were performed to identify compounds capable of antagonizing indole-sensitive receptors previously identified (U.S. Pat. No. 9,914,760 B2). Using” for “Using”, “62AM4PEJ). The receptors were exposed to binary mixtures of increasing concentrations of the test compounds in the presence of a potent activation concentration of indole (EC80) for each receptor. […] All the compounds listed decreased the indole induced activity of at least one receptor.” for “62AM4PEJ).”

[2] = system: 1-octen-3-ol receptors OR2W1, Olfr93, Olfr120, Olfr398; assay: Antagonists of 1-octen-3-ol receptors (Example 11); assay type: cell-based, mouse and human; set-up: Inhibition(%): concentration or dose not given beside the values; conditions: Table 19
Olfr738 = Olfr738 (Mus musculus, UniProt L7N1X7); assay: Indole antagonist dose-response, cAMP HTRF in HEK293T, vs indole EC80; assay type: cell-based; conditions: vs indole EC80; for IC50: Table 22, first listing (r7-r45), read-out: Olfr738 IC50
Sequence of Olfr738 (L7N1X7 entry or part of it): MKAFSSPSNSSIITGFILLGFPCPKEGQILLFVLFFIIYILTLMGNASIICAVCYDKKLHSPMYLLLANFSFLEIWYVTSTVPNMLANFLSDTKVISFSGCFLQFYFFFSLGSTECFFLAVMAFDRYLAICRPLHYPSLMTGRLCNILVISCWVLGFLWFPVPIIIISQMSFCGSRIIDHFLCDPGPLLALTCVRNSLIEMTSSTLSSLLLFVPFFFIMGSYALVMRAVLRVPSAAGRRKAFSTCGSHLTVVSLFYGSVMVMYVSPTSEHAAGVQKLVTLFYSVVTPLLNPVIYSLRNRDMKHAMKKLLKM
Method: as §1

Olfr741 = Olfr741 (Mus musculus, UniProt L7N1Y5); assay: as above; assay type: cell-based
Sequence of Olfr741 (L7N1Y5 entry or part of it): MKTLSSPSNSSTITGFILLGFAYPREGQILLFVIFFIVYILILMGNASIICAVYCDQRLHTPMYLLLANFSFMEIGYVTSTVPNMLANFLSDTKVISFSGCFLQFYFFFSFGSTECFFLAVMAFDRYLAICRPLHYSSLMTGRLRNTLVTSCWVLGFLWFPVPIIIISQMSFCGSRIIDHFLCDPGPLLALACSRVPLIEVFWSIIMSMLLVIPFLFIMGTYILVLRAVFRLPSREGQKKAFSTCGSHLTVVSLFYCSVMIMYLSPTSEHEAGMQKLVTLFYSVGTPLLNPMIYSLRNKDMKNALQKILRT
Method: as §1

Olfr742 = Olfr742 (Mus musculus, UniProt A2RTP5); assay: as above; assay type: cell-based; conditions: vs indole EC80; for Emax: HEK-293T, read-out: Olfr742 % Inhibition
Sequence of Olfr742 (A2RTP5 entry or part of it): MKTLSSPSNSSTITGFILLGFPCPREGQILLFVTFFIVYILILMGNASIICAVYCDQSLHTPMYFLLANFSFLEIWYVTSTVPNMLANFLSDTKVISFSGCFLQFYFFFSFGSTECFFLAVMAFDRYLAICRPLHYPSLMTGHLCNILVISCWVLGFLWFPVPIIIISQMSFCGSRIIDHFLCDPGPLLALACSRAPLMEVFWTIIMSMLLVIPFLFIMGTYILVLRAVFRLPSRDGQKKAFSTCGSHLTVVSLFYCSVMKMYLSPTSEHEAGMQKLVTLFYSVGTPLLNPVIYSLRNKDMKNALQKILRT
Method: as §1

Olfr748 = Olfr748 (Mus musculus, UniProt E9Q9Z0); assay: as above; assay type: cell-based; conditions: Table 23
Sequence of Olfr748 (E9Q9Z0 entry or part of it): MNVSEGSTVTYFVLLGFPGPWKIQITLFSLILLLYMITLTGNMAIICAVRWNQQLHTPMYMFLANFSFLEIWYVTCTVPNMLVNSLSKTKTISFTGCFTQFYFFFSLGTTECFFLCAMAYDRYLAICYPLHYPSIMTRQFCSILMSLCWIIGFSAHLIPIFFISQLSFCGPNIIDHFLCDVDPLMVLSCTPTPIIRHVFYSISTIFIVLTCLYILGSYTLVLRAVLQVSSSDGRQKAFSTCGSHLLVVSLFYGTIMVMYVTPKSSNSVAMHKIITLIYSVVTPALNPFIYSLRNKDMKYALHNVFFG
Method: as §1

Olfr739 = Olfr739 (Mus musculus, UniProt E9Q1P0); assay: as above; assay type: cell-based; conditions: for IC50: Table 22, first listing (r7-r45)
Sequence of Olfr739 (E9Q1P0 entry or part of it): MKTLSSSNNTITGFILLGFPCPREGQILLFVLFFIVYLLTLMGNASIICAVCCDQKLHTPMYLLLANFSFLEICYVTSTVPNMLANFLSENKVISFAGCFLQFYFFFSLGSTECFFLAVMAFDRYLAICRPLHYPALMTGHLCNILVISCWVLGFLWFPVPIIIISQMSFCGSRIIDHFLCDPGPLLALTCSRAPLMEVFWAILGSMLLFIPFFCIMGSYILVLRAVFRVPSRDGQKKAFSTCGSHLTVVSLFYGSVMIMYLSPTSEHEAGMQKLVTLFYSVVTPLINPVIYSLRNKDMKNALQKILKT
Method: as §1, with “Functional dose-response experiments were performed to identify compounds capable of antagonizing indole-sensitive receptors previously identified (U.S. Pat. No. 9,914,760 B2). Using” for “Using”, “62AM4PEJ). The receptors were exposed to binary mixtures of increasing concentrations of the test compounds in the presence of a potent activation concentration of indole (EC80) for each receptor. […] All the compounds listed decreased the indole induced activity of at least one receptor.” for “62AM4PEJ).”

Olfr743 = Olfr743 (Mus musculus, UniProt L7N1Y2); assay: as above; assay type: cell-based; conditions: Table 23
Sequence of Olfr743 (L7N1Y2 entry or part of it): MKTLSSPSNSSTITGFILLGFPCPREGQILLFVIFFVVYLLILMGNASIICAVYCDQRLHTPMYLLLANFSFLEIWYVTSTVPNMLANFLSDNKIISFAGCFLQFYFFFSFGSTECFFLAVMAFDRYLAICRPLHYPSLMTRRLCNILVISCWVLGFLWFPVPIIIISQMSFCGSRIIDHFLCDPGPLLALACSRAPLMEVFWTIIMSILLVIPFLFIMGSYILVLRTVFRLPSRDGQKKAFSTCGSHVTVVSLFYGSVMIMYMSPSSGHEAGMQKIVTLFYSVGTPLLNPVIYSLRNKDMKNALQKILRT
Method: as §1, with “Functional dose-response experiments were performed to identify compounds capable of antagonizing indole-sensitive receptors previously identified (U.S. Pat. No. 9,914,760 B2). Using” for “Using”, “62AM4PEJ). The receptors were exposed to binary mixtures of increasing concentrations of the test compounds in the presence of a potent activation concentration of indole (EC80) for each receptor. […] All the compounds listed decreased the indole induced activity of at least one receptor.” for “62AM4PEJ).”

Olfr744 = target: T2, Olfr744 (Mus musculus, UniProt Q7TRM0); assay: as above; assay type: cell-based; conditions: Table 23
T2 construct: Flag; Rho tag; expressed in transfected cells
T2 sequence (Q7TRM0 1-323): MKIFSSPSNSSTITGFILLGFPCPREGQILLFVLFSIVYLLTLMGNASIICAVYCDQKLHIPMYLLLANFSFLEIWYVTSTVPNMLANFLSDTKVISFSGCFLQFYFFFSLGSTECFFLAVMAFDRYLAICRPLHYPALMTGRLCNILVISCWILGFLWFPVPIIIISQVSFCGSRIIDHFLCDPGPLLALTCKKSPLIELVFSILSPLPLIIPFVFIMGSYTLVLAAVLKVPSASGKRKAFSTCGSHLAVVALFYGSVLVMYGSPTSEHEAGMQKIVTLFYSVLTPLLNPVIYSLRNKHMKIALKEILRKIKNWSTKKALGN
Method: as §1, with “Functional dose-response experiments were performed to identify compounds capable of antagonizing indole-sensitive receptors previously identified (U.S. Pat. No. 9,914,760 B2). Using” for “Using”, “62AM4PEJ). The receptors were exposed to binary mixtures of increasing concentrations of the test compounds in the presence of a potent activation concentration of indole (EC80) for each receptor. […] All the compounds listed decreased the indole induced activity of at least one receptor.” for “62AM4PEJ).”

Olfr749 = target: T3, Olfr749 (Mus musculus, UniProt E9Q438); assay: as above; assay type: cell-based; conditions: Table 23
T3 construct: Flag; Rho tag; expressed in transfected cells
T3 sequence (E9Q438 1-313): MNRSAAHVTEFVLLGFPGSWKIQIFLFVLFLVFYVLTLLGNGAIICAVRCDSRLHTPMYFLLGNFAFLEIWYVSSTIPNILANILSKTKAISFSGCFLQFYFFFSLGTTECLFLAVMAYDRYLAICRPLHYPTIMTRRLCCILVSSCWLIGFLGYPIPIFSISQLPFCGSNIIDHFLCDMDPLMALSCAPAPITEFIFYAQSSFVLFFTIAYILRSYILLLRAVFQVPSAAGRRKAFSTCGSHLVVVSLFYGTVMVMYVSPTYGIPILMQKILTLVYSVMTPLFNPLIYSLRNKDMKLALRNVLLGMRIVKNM
Method: as §1, with “Functional dose-response experiments were performed to identify compounds capable of antagonizing indole-sensitive receptors previously identified (U.S. Pat. No. 9,914,760 B2). Using” for “Using”, “62AM4PEJ). The receptors were exposed to binary mixtures of increasing concentrations of the test compounds in the presence of a potent activation concentration of indole (EC80) for each receptor. […] All the compounds listed decreased the indole induced activity of at least one receptor.” for “62AM4PEJ).”

[3] = Table 22, second listing of the same compounds

IC50 [1]: 220 µM
Emax (Olfr740; Table 22, first listing): 91.2%
Emax (Olfr740; [3]): 58.9%
IC50 (Olfr740): 63.6 µM
IC50 (Olfr746): 224 µM
Olfr746 % Inhibition (Olfr746): 58.87%
SMILES: C=CCCC(=O)C1=CCCC(C)(C)C1 [1-(5,5-dimethylcyclohexen-1-yl)pent-4-en-1-one]
Inhibition(%) [1]: 40%

IC50 [2]: 38 µM
IC50 (Olfr738): 9.26 µM
Olfr738 % Inhibition (Olfr738; Table 22, first listing): 93.54%
Olfr738 % Inhibition (Olfr738; [3]): 31.68%
Emax (Olfr740; Table 22, first listing): 102%
IC50 (Olfr740): 5.52 µM
IC50 (Olfr741; Table 22, first listing): 33.7 µM
Olfr741 % Inhibition (Olfr741; Table 22, first listing): 62.10%
IC50 (Olfr741; [3]): 216 µM
Olfr741 % Inhibition (Olfr741; [3]): 12.61%
Emax (Olfr742; Table 22, first listing): 59.7%
Emax (Olfr742; [3]): 57.9%
IC50 (Olfr742; Table 22, first listing (r7-r45), read-out: Olfr742 IC50): 26.8 µM
IC50 (Olfr748): 216 µM
Olfr748 % Inhibition (Olfr748): 12.61%
Olfr739 % Inhibition (Olfr739; Table 22, first listing): 61.91%
IC50 (Olfr739): 24.1 µM
Olfr739 % Inhibition (Olfr739; [3]): 38.37%
IC50 (Olfr743): 58.9 µM
Olfr743 % Inhibition (Olfr743): 31.68%
IC50 (Olfr744): 117 µM
Olfr744 % Inhibition (Olfr744): 38.37%
IC50 (Olfr749): 70 µM
Olfr749 % Inhibition (Olfr749): 57.85%
SMILES: c1nc2c(o1)CCCCCCCCCC2 [4,5,6,7,8,9,10,11,12,13-decahydrocyclododeca[d][1,3]oxazole]
Inhibition(%) [2]: 77%

IC50 (Olfr738): 43.1 µM
Olfr738 % Inhibition (Olfr738; Table 22, first listing): 52.44%
Emax (Olfr740; Table 22, first listing): 213%
IC50 (Olfr740): 10.6 µM
Olfr739 % Inhibition (Olfr739; Table 22, first listing): 60.32%
IC50 (Olfr739): 69.9 µM
Olfr739 % Inhibition (Olfr739; [3]): 148.19%
IC50 (Olfr744): 175 µM
Olfr744 % Inhibition (Olfr744): 148.19%
SMILES: CC(C)(C)C1CCC(=O)CC1 [4-t-butylcyclohexanone]
